Literature values, collected in patent US12343320B2, “Intraveneous dofetilide to reduce the risk of developing AF/AFL post coronary bypass surgery” (Hyloris Developments SA, priority 2023, dated 2025).

Columns and labels:
[1] = IV dose of 1.5 μg/kg, restated rounded
QTc interval = settings: average slope; Sedgwick et al 1991

For `CN(CCOc1ccc(NS(C)(=O)=O)cc1)CCc1ccc(NS(C)(=O)=O)cc1` [dofetilide, Dofetilide], the peak level [1] is given as 1.7 ng/mL and the “QTc change per dofetilide plasma concentration, average” value (QTc interval) is given as 20 ms.
